Laboratory results reported in US4060611A, “3-Carbamylbenzyl-7-(phenylglycyl)amino cephalosporin derivatives” (Beecham Group Limited, priority 1975, dated 1977).
Values after ≈ are worked out from the molar mass of the structure shown.

Key:
Format in all cases: cell-based
[1] = tested on: B. subtilis; experiment: MIC, growth inhibition on nutrient agar; details: Bacillus subtilis, nutrient agar (medium not given for Examples 6, 7), read-out: minimum inhibitory concentration (MIC)
[2] = tested on: Staph. aureus Oxford; experiment: MIC, growth inhibition on nutrient agar; details: Staphylococcus aureus, nutrient agar (medium not given for Examples 6, 7), read-out: minimum inhibitory concentration (MIC)
[3] = tested on: Staph. aureus Russell; experiment: MIC, growth inhibition on nutrient agar; details: Staphylococcus aureus, nutrient agar (medium not given for Examples 6, 7), read-out: minimum inhibitory concentration (MIC)
[4] = tested on: β-haemolytic strep. CN10; experiment: MIC, growth inhibition on nutrient agar; details: nutrient agar (medium not given for Examples 6, 7), read-out: minimum inhibitory concentration (MIC)
[5] = tested on: E. coli JT1; experiment: MIC, growth inhibition on nutrient agar; details: Escherichia coli, nutrient agar (medium not given for Examples 6, 7), read-out: minimum inhibitory concentration (MIC)
[6] = tested on: Salm. typhi; experiment: MIC, growth inhibition on nutrient agar; details: Salmonella enterica, read-out: minimum inhibitory concentration (MIC)
[7] = tested on: Shig. sonnei; experiment: MIC, growth inhibition on nutrient agar; details: Shigella sonnei, read-out: minimum inhibitory concentration (MIC)
[8] = tested on: Klebsiella aerogenes A; experiment: MIC, growth inhibition on nutrient agar; details: nutrient agar (medium not given for Examples 6, 7), read-out: minimum inhibitory concentration (MIC)
[9] = tested on: P. mirabilis C977; experiment: MIC, growth inhibition on nutrient agar; details: Proteus mirabilis, nutrient agar (medium not given for Examples 6, 7), read-out: minimum inhibitory concentration (MIC)
[10] = tested on: Enterobacter cloacae N1; experiment: MIC, growth inhibition on nutrient agar; details: nutrient agar (medium not stated for Example 6), read-out: minimum inhibitory concentration (MIC)
[11] = tested on: P. rettgeri; experiment: MIC, growth inhibition on nutrient agar; details: Providencia rettgeri, nutrient agar (medium not given for Examples 6, 7), read-out: minimum inhibitory concentration (MIC)
[12] = tested on: P. mirabilis 889; experiment: MIC, growth inhibition on nutrient agar; details: Proteus mirabilis, read-out: minimum inhibitory concentration (MIC)
[13] = tested on: P. mirabilis 899; experiment: MIC, growth inhibition on nutrient agar; details: Proteus mirabilis, read-out: minimum inhibitory concentration (MIC)
[14] = tested on: P. morganii; experiment: MIC, growth inhibition; details: Morganella morganii, medium not stated, read-out: minimum inhibitory concentration (MIC)

SMILES | MIC [1] | MIC [2] | MIC [3] | MIC [4] | MIC [5] | MIC [6] | MIC [7] | MIC [8] | MIC [9] | MIC [10] | MIC [11] | MIC [12] | MIC [13] | MIC [14]
NC(=O)c1ccc(CC2=C(C(=O)O)N3C(=O)[C@@H](NC(=O)C(C(=O)Oc4ccccc4)c4ccccc4)[C@H]3SC2)cc1 (mixture of isomers) [Example 3, 3-(p-Carbamoylbenzyl)-7β-(DL-α-phenoxycarbonylphenylacetamido)ceph-3-em-4-carboxylic acid] | 10 µg/mL | 1 µg/mL | 10 µg/mL | 1 µg/mL | 5 µg/mL | 10 µg/mL | 5 µg/mL | 10 µg/mL | 5 µg/mL | 10 µg/mL | 5 µg/mL |  |  | 
NC(=O)c1ccc(CC2=C(C(=O)O)N3C(=O)[C@@H](NC(=O)C(C(=O)Oc4ccccc4)c4ccsc4)[C@H]3SC2)cc1 (mixture of isomers) [Example 6, 3-(p-Carbamoylbenzyl)-7β-(DL-α-phenoxycarbonyl-3^1-thienylacetamido)ceph-3-em-4-carboxylic acid] | 25 µg/mL | 12.5 µg/mL | 25 µg/mL | 25 µg/mL | 5 µg/mL |  |  | 2.5 µg/mL | 12.5 µg/mL | 12.5 µg/mL | 5 µg/mL |  |  | 
NC(=O)c1ccc(CC2=C(C(=O)O)N3C(=O)[C@@H](NC(=O)[C@H](N)c4ccccc4)[C@H]3SC2)cc1 [Example 1, 3-(p-Carbamoylbenzyl)-7β-(D-α-phenylglycyl)amino-ceph-3-em-4-carboxylic acid] | 0.1 µg/mL (≈ 0.214 µM) | 0.1 µg/mL (≈ 0.214 µM) | 2.5 µg/mL (≈ 5.36 µM) | 0.01 µg/mL (≈ 0.0214 µM) | 2.5 µg/mL (≈ 5.36 µM) | 2.5 µg/mL (≈ 5.36 µM) | 2.5 µg/mL (≈ 5.36 µM) | 1 µg/mL (≈ 2.14 µM) |  |  |  | 2.5 µg/mL (≈ 5.36 µM) |  | 
NC(=O)c1ccc(CC2=C(C(=O)O)N3C(=O)[C@@H](NC(=O)[C@H](N)c4ccc(O)cc4)[C@H]3SC2)cc1 [Example 2, 3-(p-Carbamoylbenzyl)-7β-(D-α-p-hydroxyphenylglycyl)amino-ceph-3-em-4-carboxylic acid] | 0.25 µg/mL (≈ 0.518 µM) | 0.1 µg/mL (≈ 0.207 µM) | 1 µg/mL (≈ 2.07 µM) | 0.02 µg/mL (≈ 0.0414 µM) | 2.5 µg/mL (≈ 5.18 µM) | 0.5 µg/mL (≈ 1.04 µM) | 2.5 µg/mL (≈ 5.18 µM) | 1 µg/mL (≈ 2.07 µM) | 2.5 µg/mL (≈ 5.18 µM) |  |  |  | 5 µg/mL (≈ 10.4 µM) | 
NC(=O)c1cccc(CC2=C(C(=O)O)N3C(=O)[C@@H](NC(=O)[C@H](N)c4ccccc4)[C@H]3SC2)c1 [Example 4, 3-(m-Carbamoylbenzyl)-7β-(D-α-phenylglycyl)amino-ceph-3-em-4-carboxylic acid] | 0.1 µg/mL (≈ 0.214 µM) | 0.1 µg/mL (≈ 0.214 µM) | 2.5 µg/mL (≈ 5.36 µM) | 0.05 µg/mL (≈ 0.107 µM) |  | 10 µg/mL (≈ 21.4 µM) |  | 5 µg/mL (≈ 10.7 µM) |  |  |  | 10 µg/mL (≈ 21.4 µM) |  | 
NC(=O)c1cc(CC2=C(C(=O)O)N3C(=O)[C@@H](NC(=O)[C@H](N)c4ccccc4)[C@H]3SC2)cc(C(N)=O)c1 [Example 5, 3-(3,5-dicarbamoylbenzyl)-7β-(D-α-phenylglycyl)amino-ceph-3-em-4-carboxylic acid] | 2.5 µg/mL (≈ 4.91 µM) | 0.5 µg/mL (≈ 0.981 µM) | 5 µg/mL (≈ 9.81 µM) | 0.5 µg/mL (≈ 0.981 µM) |  | 10 µg/mL (≈ 19.6 µM) | 10 µg/mL (≈ 19.6 µM) | 5 µg/mL (≈ 9.81 µM) |  |  |  |  |  | 
CN(C(=O)C=Cc1ccccc1)C(=O)N[C@@H](C(=O)N[C@@H]1C(=O)N2C(C(=O)O)=C(Cc3ccc(C(N)=O)cc3)CS[C@H]12)c1ccccc1 [Example 7, 3-(p-Carbamoylbenzyl)-7β-[D-α-(3-cinnamoyl-3-methyluriedo)phenylacetamido]ceph-3-em-4-carboxylic acid] | 5 µg/mL (≈ 7.65 µM) | 0.1 µg/mL (≈ 0.153 µM) | 12.5 µg/mL (≈ 19.1 µM) | 0.05 µg/mL (≈ 0.0765 µM) | 5 µg/mL (≈ 7.65 µM) |  |  | 5 µg/mL (≈ 7.65 µM) | 5 µg/mL (≈ 7.65 µM) |  | 12.5 µg/mL (≈ 19.1 µM) |  |  | 5 µg/mL (≈ 7.65 µM)
